Where “and” joins values, the source holds several entries; their conditions need not be identical. Equal values may be shown once.
What was measured:
ALK L1196M = ALK L1196M (Homo sapiens, UniProt Q9UM73, L1196M); experiment: ALK enzymatic IC50, L1196M; format: biochemical
From the text: Supplement 12916_2022_2646_MOESM1_ESM.docx, table 1 | column: ALK Enzymatic IC50 (nM)

FAK = test system: FAK; set-up: method as in PMID 27638856; details: less potent than the inhibition to ALK; cited from earlier work
Pyk2 = test system: Pyk2; set-up: method as in PMID 27638856; details: less potent than the inhibition to ALK; cited from earlier work
ALK-positive NSCLC = experiment: Phase 1 efficacy assessment (RECIST 1.1, investigator-assessed);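 also: tumours imaged by CT or MRI at baseline, after cycle 1, then every 8 weeks to cycle 29 and every 12 weeks until progression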
[1] = ALK TKI-naïve, 300 mg BID (n=6)
[2] = ALK TKI-naïve, 600 mg QD (n=12)
[3] = All patients, 300 mg BID (n=11)
[4] = Received crizotinib previously, 50 mg QD (n=1)
[5] = Received crizotinib previously, 200 mg QD (n=1)
[6] = Received crizotinib previously, 300 mg BID (n=5)
[7] = Received crizotinib previously, 300 mg QD (n=1)
[8] = Received crizotinib previously, 600 mg QD (n=6)
[9] = Received crizotinib previously, 800 mg QD (n=1)
[10] = waterfall plot, evaluable patients (n=60)

COc1cc(N2CCC(N3CCN(C)CC3)CC2)ccc1Nc1nc2c(c(Nc3ccccc3S(=O)(=O)NC(C)C)n1)CCN2 [Conteltinib]
IC50 (ALK L1196M): 3.8 nM
FAK inhibition (FAK): inhibits
Pyk2 inhibition (Pyk2): inhibits
CR rate (ALK-positive NSCLC; 39 ALK TKI-naïve patients): 2.6%
PR rate (ALK-positive NSCLC; 39 ALK TKI-naïve patients): 61.5%
number of patients with objective response (ALK-positive NSCLC; 39 ALK TKI-naïve patients): 25 patients
patients with tumor regression (ALK-positive NSCLC; 50/60 patients): 83.3%
DCR (95% CI) (ALK-positive NSCLC; ALK TKI-naïve, 50 mg QD (n=1)): 100.0% (2.5–100.0)
ORR (95% CI) (ALK-positive NSCLC; ALK TKI-naïve, 50 mg QD (n=1)): 100.0% (2.5–100.0)
DoR, Median (95% CI) (ALK-positive NSCLC; ALK TKI-naïve, 100 mg QD (n=6)): 11.1 (5.61–15.0) months
PFS, Median (95% CI) (ALK-positive NSCLC; ALK TKI-naïve, 100 mg QD (n=6)): 11.3 (2.75–15.9) months
DoR, Median (95% CI) (ALK-positive NSCLC; ALK TKI-naïve, 200 mg QD (n=2)): 5.51 (NE–NE) months
ORR (95% CI) (ALK-positive NSCLC; ALK TKI-naïve, 200 mg QD (n=2)): 50.0% (1.3–98.7)
PFS, Median (95% CI) (ALK-positive NSCLC; ALK TKI-naïve, 200 mg QD (n=2)): 5.89 (3.25–8.54) months
DoR, Median (95% CI) (ALK-positive NSCLC; [1]): 10.6 (1.80–10.6) months
PFS, Median (95% CI) (ALK-positive NSCLC; [1]): 17.8 (3.05–19.6) months
DCR (95% CI) (ALK-positive NSCLC; ALK TKI-naïve, 300 mg QD (n=2)): 100.0% (15.8–100.0)
DoR, Median (95% CI) (ALK-positive NSCLC; ALK TKI-naïve, 300 mg QD (n=2)): 17.4 (9.06–25.8) months
ORR (95% CI) (ALK-positive NSCLC; ALK TKI-naïve, 300 mg QD (n=2)): 100.0% (15.8–100.0)
PFS, Median (95% CI) (ALK-positive NSCLC; ALK TKI-naïve, 300 mg QD (n=2)): 19.5 (10.2–28.8) months
DoR, Median (95% CI) (ALK-positive NSCLC; ALK TKI-naïve, 450 mg QD (n=8)): NE (3.74–NE)
PFS, Median (95% CI) (ALK-positive NSCLC; ALK TKI-naïve, 450 mg QD (n=8)): NE (4.63–NE)
DoR, Median (95% CI) (ALK-positive NSCLC; [2]): 16.5 (1.80–32.8) months
PFS, Median (95% CI) (ALK-positive NSCLC; [2]): 19.3 (1.05–32.4) months
DCR (95% CI) (ALK-positive NSCLC; ALK TKI-naïve, 800 mg QD (n=2)): 100.0% (15.8–100.0)
DoR, Median (95% CI) (ALK-positive NSCLC; ALK TKI-naïve, 800 mg QD (n=2)): 28.0 (NE–NE) months
ORR (95% CI) (ALK-positive NSCLC; ALK TKI-naïve, 800 mg QD (n=2)): 50.0% (1.3–98.7)
PFS, Median (95% CI) (ALK-positive NSCLC; ALK TKI-naïve, 800 mg QD (n=2)): 19.8 (10.3–29.2) months
DoR, Median (95% CI) (ALK-positive NSCLC; ALK TKI-naïve, Total (n=39)): 15.0 (9.06–25.8) months
PFS, Median (95% CI) (ALK-positive NSCLC; ALK TKI-naïve, Total (n=39)): 15.9 (9.26–23.3) months
DCR (95% CI) (ALK-positive NSCLC; All patients, 50 mg QD (n=2)): 50.0% (1.3–98.7)
ORR (95% CI) (ALK-positive NSCLC; All patients, 50 mg QD (n=2)): 50.0% (1.3–98.7)
PFS, Median (95% CI) (ALK-positive NSCLC; All patients, 50 mg QD (n=2)): NE (1.21–NE)
DoR, Median (95% CI) (ALK-positive NSCLC; All patients, 100 mg QD (n=7)): 11.1 (5.61–15.0) months
PFS, Median (95% CI) (ALK-positive NSCLC; All patients, 100 mg QD (n=7)): 8.57 (0.95–15.9) months
DCR (95% CI) (ALK-positive NSCLC; All patients, 200 mg QD (n=3)): 33.3% (0.8–90.6)
DoR, Median (95% CI) (ALK-positive NSCLC; All patients, 200 mg QD (n=3)): 5.51 (NE–NE) months
ORR (95% CI) (ALK-positive NSCLC; All patients, 200 mg QD (n=3)): 33.3% (0.8–90.6)
PFS, Median (95% CI) (ALK-positive NSCLC; All patients, 200 mg QD (n=3)): 3.25 (1.34–8.54) months
DoR, Median (95% CI) (ALK-positive NSCLC; [3]): 5.58 (1.80–10.6) months
PFS, Median (95% CI) (ALK-positive NSCLC; [3]): 7.68 (3.05–17.8) months
DCR (95% CI) (ALK-positive NSCLC; All patients, 300 mg QD (n=3)): 100.0% (29.2–100.0)
DoR, Median (95% CI) (ALK-positive NSCLC; All patients, 300 mg QD (n=3)): 17.4 (9.06–25.8) months
ORR (95% CI) (ALK-positive NSCLC; All patients, 300 mg QD (n=3)): 66.7% (9.4–99.2)
PFS, Median (95% CI) (ALK-positive NSCLC; All patients, 300 mg QD (n=3)): 10.2 (4.92–28.8) months
DoR, Median (95% CI) (ALK-positive NSCLC; All patients, 450 mg QD (n=13)): NE (3.74–NE)
PFS, Median (95% CI) (ALK-positive NSCLC; All patients, 450 mg QD (n=13)): 26.9 (4.63–NE) months
DoR, Median (95% CI) (ALK-positive NSCLC; All patients, 600 mg QD (n=18)): 15.6 (1.80–22.2) months
PFS, Median (95% CI) (ALK-positive NSCLC; All patients, 600 mg QD (n=18)): 13.2 (4.69–23.0) months
DCR (95% CI) (ALK-positive NSCLC; All patients, 800 mg QD (n=3)): 100.0% (29.2–100.0)
DoR, Median (95% CI) (ALK-positive NSCLC; All patients, 800 mg QD (n=3)): 17.3 (6.60–28.0) months
ORR (95% CI) (ALK-positive NSCLC; All patients, 800 mg QD (n=3)): 66.7% (9.4–99.2)
PFS, Median (95% CI) (ALK-positive NSCLC; All patients, 800 mg QD (n=3)): 10.3 (7.72–29.2) months
DoR, Median (95% CI) (ALK-positive NSCLC; All patients, Total (n=60)): 13.3 (6.60–22.2) months
PFS, Median (95% CI) (ALK-positive NSCLC; All patients, Total (n=60)): 9.26 (6.73–15.7) months
patients achieving CR (ALK-positive NSCLC; FAS, 60 patients): 1.7%
patients achieving PR (ALK-positive NSCLC; FAS, 60 patients): 51.7%
patients attaining SD (ALK-positive NSCLC; FAS, 60 patients): 26.7%
patients experiencing PD (ALK-positive NSCLC; FAS, 60 patients): 16.7%
DCR (95% CI) (ALK-positive NSCLC; [4]): 0.0% (0.0–97.5)
ORR (95% CI) (ALK-positive NSCLC; [4]): 0.0% (0.0–97.5)
PFS, Median (95% CI) (ALK-positive NSCLC; [4]): 1.21 (NE–NE) months
PFS, Median (95% CI) (ALK-positive NSCLC; Received crizotinib previously, 100 mg QD (n=1)): 0.95 months and 0.95 (NE–NE) months
DCR (95% CI) (ALK-positive NSCLC; [5]): 0.0% (0.0–97.5)
ORR (95% CI) (ALK-positive NSCLC; [5]): 0.0% (0.0–97.5)
PFS, Median (95% CI) (ALK-positive NSCLC; [5]): 1.34 (NE–NE) months
DoR, Median (95% CI) (ALK-positive NSCLC; [6]): 5.58 (4.63–7.39) months
PFS, Median (95% CI) (ALK-positive NSCLC; [6]): 7.09 (4.73–8.54) months
DCR (95% CI) (ALK-positive NSCLC; [7]): 100.0% (54.1–100.0)
ORR (95% CI) (ALK-positive NSCLC; [7]): 0.0% (0.0–97.5)
PFS, Median (95% CI) (ALK-positive NSCLC; [7]): 4.92 (NE–NE) months
PFS, Median (95% CI) (ALK-positive NSCLC; Received crizotinib previously, 450 mg QD (n=5)): 8.34 (3.02–26.9) months
DoR, Median (95% CI) (ALK-positive NSCLC; [8]): 13.3 (3.77–16.5) months
PFS, Median (95% CI) (ALK-positive NSCLC; [8]): 9.37 (4.69–17.7) months
DCR (95% CI) (ALK-positive NSCLC; [9]): 100.0% (2.5–100.0)
DoR, Median (95% CI) (ALK-positive NSCLC; [9]): 6.60 (NE–NE) months
ORR (95% CI) (ALK-positive NSCLC; [9]): 100.0% (2.5–100.0)
PFS, Median (95% CI) (ALK-positive NSCLC; [9]): 7.72 (NE–NE) months
tumor size changes relative to baseline (ALK-positive NSCLC; across all patients (n=60)): −100 to 74%
number of patients with CR (ALK-positive NSCLC; [10]): One
number of patients with PD (ALK-positive NSCLC; [10]): 10 patients
number of patients with PR (ALK-positive NSCLC; [10]): 31 patients

Reference: PMC9694544, “Conteltinib (CT-707) in patients with advanced ALK-positive non-small cell lung cancer: a multicenter, open-label, first-in-human phase 1 study” (BMC Medicine, 2022)
